{"source": "ChEMBL document CHEMBL5252531", "about": "“2015 Philip S. Portoghese Medicinal Chemistry Lectureship. Curing Hepatitis C Virus Infection with Direct-Acting Antiviral Agents: The Arc of a Medicinal Chemistry Triumph” (J Med Chem, 2016)", "key": {"Hepatitis C virus [1]": {"test_system": "Hepatitis C virus", "test": "Antiviral activity against HCV genotype 1a", "assay_type": "functional, organism-based, Hepacivirus hominis"}, "Hepatitis C virus [2]": {"test_system": "Hepatitis C virus", "test": "Antiviral activity against HCV genotype 1b", "assay_type": "functional, organism-based, Hepacivirus hominis"}, "[3]": {"test": "Half life in dog liver microsomes", "assay_type": "ADME, Canis lupus familiaris, Microsome"}, "[4]": {"target": "RNA-directed RNA polymerase (Hepacivirus hominis, UniProt O39930)", "sequence (O39930 whole entry)": "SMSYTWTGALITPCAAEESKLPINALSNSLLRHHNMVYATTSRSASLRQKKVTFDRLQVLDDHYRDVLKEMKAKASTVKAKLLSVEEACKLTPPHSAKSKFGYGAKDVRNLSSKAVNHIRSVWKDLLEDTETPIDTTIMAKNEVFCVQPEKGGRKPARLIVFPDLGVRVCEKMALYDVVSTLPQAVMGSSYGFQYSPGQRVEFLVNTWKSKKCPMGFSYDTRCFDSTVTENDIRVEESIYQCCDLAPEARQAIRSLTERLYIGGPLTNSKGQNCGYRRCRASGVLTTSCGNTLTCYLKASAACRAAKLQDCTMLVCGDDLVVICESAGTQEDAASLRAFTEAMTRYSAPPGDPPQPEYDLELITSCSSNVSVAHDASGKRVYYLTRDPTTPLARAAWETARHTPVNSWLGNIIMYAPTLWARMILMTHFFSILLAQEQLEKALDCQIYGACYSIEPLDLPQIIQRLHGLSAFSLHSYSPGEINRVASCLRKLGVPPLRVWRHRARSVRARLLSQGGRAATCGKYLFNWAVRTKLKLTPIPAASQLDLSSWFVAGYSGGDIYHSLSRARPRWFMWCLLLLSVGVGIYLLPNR", "test": "Inhibition of Hepatitis C virus NS5B polymerase"}, "[5]": {"target": "T1, Nuclear receptor subfamily 1 group I member 2 (Homo sapiens, UniProt O75469)", "T1 sequence (O75469 whole entry)": "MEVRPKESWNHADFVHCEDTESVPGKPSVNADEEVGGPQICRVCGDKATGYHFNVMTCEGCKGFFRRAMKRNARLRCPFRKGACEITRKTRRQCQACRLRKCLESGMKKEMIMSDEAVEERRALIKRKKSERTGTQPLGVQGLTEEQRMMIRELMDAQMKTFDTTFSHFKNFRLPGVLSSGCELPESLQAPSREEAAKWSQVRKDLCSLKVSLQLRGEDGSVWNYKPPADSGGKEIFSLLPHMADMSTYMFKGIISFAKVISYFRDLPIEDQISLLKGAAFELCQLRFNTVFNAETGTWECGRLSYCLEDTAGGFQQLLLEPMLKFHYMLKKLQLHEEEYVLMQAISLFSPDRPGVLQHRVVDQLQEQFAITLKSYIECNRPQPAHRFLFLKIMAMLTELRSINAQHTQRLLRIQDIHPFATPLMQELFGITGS", "test": "Inhibition of PXR (unknown origin)"}, "Hepatitis C virus [6]": {"test_system": "Hepatitis C virus", "test": "Antiviral activity against HCV GT1a-genotype assessed as inhibition of viral replication", "assay_type": "functional, organism-based, Hepacivirus hominis"}, "Hepatitis C virus [7]": {"test_system": "Hepatitis C virus", "test": "Antiviral activity against HCV GT1b-genotype assessed as viral growth inhibition measured after 24 hrs", "assay_type": "functional, organism-based, Hepacivirus hominis", "settings": "Hepatitis C virus, GT1b-genotype, 24 h"}, "Hepatitis C virus [8]": {"test_system": "Hepatitis C virus", "test": "Antiviral activity against HCV genotype 1b Tyr93His mutant", "settings": "Hepacivirus hominis"}, "Hepatitis C virus [9]": {"test_system": "Hepatitis C virus", "test": "Antiviral activity against HCV genotype 1b harboring NS5A Y93H mutant", "assay_type": "functional, organism-based, Hepacivirus hominis"}, "[10]": {"test": "Binding affinity to Hepatitis C virus NS3 assessed as inhibition constant", "design": "species or system Hepacivirus hominis"}, "[11]": {"test": "Binding affinity to Hepatitis C virus NS3 protease (1027 to 1206 residues) expressed in Escherichia coli assessed as inhibition constant", "design": "species or system Hepacivirus hominis"}, "[12]": {"target": "T2, Hepatitis C virus serine protease, NS3/NS4A (Hepatitis C virus, UniProt A3EZI9+D2K2A8)", "T2 sequence (D2K2A8 whole entry)": "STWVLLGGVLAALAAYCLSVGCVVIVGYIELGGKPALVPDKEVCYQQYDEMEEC", "T2 sequence (A3EZI9 whole entry)": "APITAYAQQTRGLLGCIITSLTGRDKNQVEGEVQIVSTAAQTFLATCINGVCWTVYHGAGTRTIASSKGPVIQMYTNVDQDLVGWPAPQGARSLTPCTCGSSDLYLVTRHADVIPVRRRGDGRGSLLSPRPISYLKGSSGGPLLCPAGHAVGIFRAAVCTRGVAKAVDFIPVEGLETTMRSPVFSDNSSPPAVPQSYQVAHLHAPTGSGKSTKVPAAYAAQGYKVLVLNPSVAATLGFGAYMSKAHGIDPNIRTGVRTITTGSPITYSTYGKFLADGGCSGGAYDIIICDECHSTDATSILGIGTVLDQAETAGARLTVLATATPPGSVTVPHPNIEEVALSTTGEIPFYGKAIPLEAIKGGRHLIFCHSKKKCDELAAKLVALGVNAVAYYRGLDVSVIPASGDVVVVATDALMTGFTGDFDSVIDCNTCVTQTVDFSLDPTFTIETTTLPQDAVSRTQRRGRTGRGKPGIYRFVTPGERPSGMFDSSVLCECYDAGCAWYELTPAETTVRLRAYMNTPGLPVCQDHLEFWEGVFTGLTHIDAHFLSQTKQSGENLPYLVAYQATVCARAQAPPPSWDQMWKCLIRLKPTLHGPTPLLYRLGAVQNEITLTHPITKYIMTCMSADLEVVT", "test": "Inhibition of Hepatitis C virus NS3/NS4A protease", "assay_type": "protein-complex assay, Hepacivirus hominis"}, "[13]": {"target": "T2, Hepatitis C virus serine protease, NS3/NS4A", "test": "Inhibition of HCV NS4A-NS3 protease", "assay_type": "protein-complex assay, Hepacivirus hominis"}}, "note": "Square brackets hold non-standard residues; d marks the D form. Peptide text beside a SMILES is read from it. * marks the point of attachment. Dip = N[C@H](C(=O)O)C(c1ccccc1)c1ccccc1; CH2(1-naphthyl) = c1ccc2c(C*)cccc2c1; Abu(4,4-F2) = N[C@@H](CC(F)F)C(=O)O; Hyp = O=C(O)[C@@H]1C[C@@H](O)CN1; Cha = N[C@@H](CC1CCCCC1)C(=O)O; Chg = N[C@H](C(=O)O)C1CCCCC1; Ac3c = NC1(C(=O)O)CC1", "data": [{"molecule": "COC(=O)N[C@@H](C(=O)N1CCC[C@H]1c1ncc(-c2ccc(-c3ccc(-c4cnc([C@@H]5CCCN5C(=O)[C@H](NC(=O)OC)c5ccccc5)[nH]4)cc3)cc2)[nH]1)c1ccccc1", "values": [{"measurement": "EC50", "setting": "Hepatitis C virus [1]", "value": 0.028, "unit": "nM"}, {"measurement": "EC50", "setting": "Hepatitis C virus [2]", "value": 0.0067, "unit": "nM"}]}, {"molecule": "C=C[C@@H]1C[C@]1(NC(=O)[C@@H]1C[C@@H](Oc2cc(-c3ccccc3)nc3cc(OC)ccc23)CN1C(=O)[C@@H](NC(=O)OC(C)(C)C)C(C)(C)C)C(=O)NS(=O)(=O)C1CC1", "values": [{"measurement": "half-life", "setting": "[3]", "value": 2.83, "unit": "h"}]}, {"molecule": "Cn1c(-c2ccccc2)c(C2CCCCC2)c2ccc(C(=O)O)cc21", "values": [{"measurement": "IC50", "setting": "[4]", "value": 120, "unit": "nM"}]}, {"molecule": "COc1ccc2c(c1)C=C(C(=O)N1C[C@@H](C)O[C@@H](C)C1)Cn1c-2c(C2CCCCC2)c2ccc(C(=O)NS(=O)(=O)N(C)C)cc21", "values": [{"measurement": "IC50", "setting": "[5]", "value": "> 10000", "unit": "nM"}, {"measurement": "EC50", "setting": "Hepatitis C virus [6]", "value": 40, "unit": "nM"}, {"measurement": "EC50", "setting": "Hepatitis C virus [7]", "value": 40, "unit": "nM"}]}, {"molecule": "O=C1N[C@H]2[C@H](CS[C@H]2CCCCC(=O)N2CCC[C@H]2C(=O)Nc2ccc(/C=C/c3ccc(NC(=O)[C@@H]4CCCN4C(=O)Cc4ccccc4)cc3)cc2)N1", "values": [{"measurement": "EC50", "setting": "Hepatitis C virus [1]", "value": 33, "unit": "nM"}, {"measurement": "EC50", "setting": "Hepatitis C virus [2]", "value": "> 10000", "unit": "nM"}, {"measurement": "EC50", "setting": "Hepatitis C virus [8]", "value": "> 10000", "unit": "nM"}]}, {"molecule": "C[C@H](NC(=O)Cc1ccccc1)C(=O)Nc1ccc(C2(O)C(=O)N(Cc3ccco3)C(=S)N2c2cccc(F)c2)cc1", "note": "(stereo partly specified)", "values": [{"measurement": "EC50", "setting": "Hepatitis C virus [9]", "value": 43, "unit": "nM"}]}, {"molecule": "CC(C)C[C@H](NC(=O)[C@H](CCC(=O)O)NC(=O)OC(C)(C)C)C(=O)NC(CC(F)F)C(=O)C(=O)O", "note": "(stereo partly specified)", "values": [{"measurement": "Ki", "setting": "[10]", "value": 17000, "unit": "nM"}, {"measurement": "Ki", "setting": "[11]", "value": 27, "unit": "nM"}]}, {"molecule": "Fc1cccc(NC(=S)NCc2ccco2)c1", "values": [{"measurement": "EC50", "setting": "Hepatitis C virus [9]", "value": 0.6, "unit": "nM"}]}, {"molecule": "COc1ccc2c(c1)[C@@H]1C[C@]1(C(=O)N1C[C@@H](C)O[C@@H](C)C1)Cn1c-2c(C2CCCCC2)c2ccc(C(=O)NS(=O)(=O)N(C)C)cc21", "values": [{"measurement": "EC50", "setting": "Hepatitis C virus [6]", "value": 1, "unit": "nM"}, {"measurement": "EC50", "setting": "Hepatitis C virus [7]", "value": 3, "unit": "nM"}]}, {"molecule": "CC(=O)N[C@@H](CC(=O)O)C(=O)N[C@@H](CCC(=O)O)C(=O)N[C@H](C(=O)N[C@@H](CCC(=O)O)C(=O)N[C@@H](CC1CCCCC1)C(=O)N[C@@H](CC(F)F)C(=O)O)C(c1ccccc1)c1ccccc1", "note": "(Ac-DE[Dip]E[Cha][Abu(4,4-F2)]-OH)", "values": [{"measurement": "Ki", "setting": "[12]", "value": 3, "unit": "nM"}]}, {"molecule": "CC(=O)N[C@H](C(=O)N[C@H](C(=O)N1C[C@H](OCc2cccc3ccccc23)C[C@H]1C(=O)NC1(C(=O)O)CC1)C(C)C)C1CCCCC1", "note": "(Ac-[Chg]V[Hyp](CH2(1-naphthyl))[Ac3c]-OH)", "values": [{"measurement": "IC50", "setting": "[13]", "value": 3500, "unit": "nM"}]}, {"molecule": "COc1ccc2c(c1)C1CC1(C(=O)N1C3CCC1CN(C)C3)Cn1c-2c(C2CCCCC2)c2ccc(C(=O)NS(=O)(=O)N(C)C)cc21", "note": "(racemic)", "values": [{"measurement": "EC50", "setting": "Hepatitis C virus [1]", "value": 3, "unit": "nM"}, {"measurement": "EC50", "setting": "Hepatitis C virus [2]", "value": 208, "unit": "nM"}]}, {"molecule": "Ac-DEMEEC-OH", "values": [{"measurement": "Ki", "setting": "[10]", "value": 600, "unit": "nM"}]}]}
